Results from patent US20080318954A1, “Compounds” (Cyclacel Limited, priority 2004, published 2008).

What was measured:
[1] = target: T1, MAPKAP-K1a (Homo sapiens, UniProt Q15418); test: Protein kinase panel selectivity screen, MAPKAP-K1a; type: biochemical; details: 1 μM compound; [ATP] 50 μM
T1 construct: Dundee University (panel)
Experimental: (§1) The names of the 29 kinases comprising the selectivity screen, as well as the ATP concentrations used in each kinase case, are given in Table 5. The kinase assays were carried out as described previously.
(§2) Compound XIV at a concentration of 1 μM was screened in the 29-kinase panel (Dundee University) and the results are shown bellow in Table 6.

[2] = tested on: glycogen synthase activity in L6 rat myocytes; test: Glycogen synthase (GS) assay in L6 rat myocytes; type: cell-based
Experimental: Rat skeletal muscle myoblasts L6/G8.C5 were seeded at 2.4×10^5 cells per 10 cm dish in DMEM 10% foetal calf serum (FCS), containing penicillin/streptomycin. When 90% confluence was reached the medium was exchanged with α MEM, supplemented with 2%
FCS and penicillin/streptomycin. Medium was refreshed every 48 hours and 4-7 days later the myocytes were formed.
Cells on 10 cm dishes (Human Embryonic Kidney (HEK) 293 cells, L6 rat myocytes, or 3T3 mouse adipocytes) were treated with different concentrations of GSK3-inhibitors or DMSO vehicle for 90 min. […] Lysates were assayed for glycogen synthase activity in buffer (50 mM Tris-HCl, pH 7.8, 20 mM EDTA, 25 mM NaF, 5 mM DTT, 1% glycogen, 0.3 mM UDP-glucose and 0.06 μCi of [^14C]-UDP-glucose in the presence of 0.1 or 10 mM glucose-6-phosphate. The reaction was carried out for 30 min at 30° C. 70 μL of the reaction mixture (total volume 90 μL) were transferred to a GFC 96-well filter plate (bottom sealed with foil), containing 140 μL 96% ethanol. The GFC plate was incubated for 1 h on ice and than washed with 66% ethanol. To each well 100 μL scintillant liquid was added and the radioactivity of the samples was measured using a scintillation counter (Topcount, HP). Data are expressed as -fold increase in glycogen synthase activity ratios over those of control samples.

[3] = tested on: p70S6K; test: Protein kinase panel selectivity screen, p70S6K; type: biochemical; details: 1 μM compound; [ATP] 20 μM
Experimental: as §1, §2

[4] = tested on: Lck; test: Protein kinase panel selectivity screen, Lck; type: biochemical; details: 1 μM compound; [ATP] 50 μM
Experimental: as §1, §2

[5] = target: T2, CDK1/cyclin B1 (Homo sapiens, UniProt P06493); test: CDK/cyclin kinase assay, CDK1/cyclin B1; type: biochemical
T2 construct: His6 (N); made in house; host or cells: Sf9 insect cells (baculovirus)
T2 sequence (P06493 whole entry): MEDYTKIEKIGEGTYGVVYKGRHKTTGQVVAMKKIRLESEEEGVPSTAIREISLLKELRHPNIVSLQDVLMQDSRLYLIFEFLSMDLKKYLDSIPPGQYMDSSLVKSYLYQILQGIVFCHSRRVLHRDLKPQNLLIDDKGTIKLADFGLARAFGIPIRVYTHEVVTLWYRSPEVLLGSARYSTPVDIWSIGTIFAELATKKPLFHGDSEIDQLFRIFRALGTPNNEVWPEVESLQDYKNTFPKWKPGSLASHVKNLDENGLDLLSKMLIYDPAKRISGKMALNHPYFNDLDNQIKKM
T2 sequence (P14635 whole entry partner): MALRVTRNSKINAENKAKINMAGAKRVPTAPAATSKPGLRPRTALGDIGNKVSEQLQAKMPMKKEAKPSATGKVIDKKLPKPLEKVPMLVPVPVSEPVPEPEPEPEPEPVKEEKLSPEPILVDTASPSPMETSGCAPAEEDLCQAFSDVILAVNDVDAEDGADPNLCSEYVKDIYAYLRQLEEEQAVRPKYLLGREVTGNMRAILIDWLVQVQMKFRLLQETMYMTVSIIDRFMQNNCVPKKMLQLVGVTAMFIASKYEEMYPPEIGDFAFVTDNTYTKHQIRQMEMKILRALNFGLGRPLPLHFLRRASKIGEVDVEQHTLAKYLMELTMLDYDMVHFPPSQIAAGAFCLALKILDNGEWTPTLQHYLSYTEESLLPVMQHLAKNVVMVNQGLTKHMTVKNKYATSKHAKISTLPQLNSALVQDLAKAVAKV
Experimental: (§3) CDK4/cyclin D1, CDK1/cyclin B, CDK2/cyclin E, CDK2/cyclin A, CDK9/cyclin T1 and CDK7/cyclin H, all with a His6 tag on the N-terminus, were expressed in Sf9 insect cells using an appropriate baculovirus construct. Sf9 culture (1.6×10^6 cells/mL) was infected (MOI of 3) for two days. The cells were harvested by low speed centrifugation and the protein was purified from the insect cell pellet by metal affinity chromatography. In short: the insect cell pellet was lysed in Buffer A (10 mM Tris-HCl pH 8.0, 150 mM NaCl, 0.02% NP-40, 5 mM β-mercaptoethanol, 20 mM NaF, 1 mM Na3VO4, and Sigma Protease Inhibitor Cocktail) by sonication. The soluble fraction was cleared by centrifugation and loaded onto Ni-NTA-Agarose (Qiagen). Non-bound protein was washed off with 300 mM NaCl, 5-15 mM imidazole in buffer A and the bound protein was eluted with buffer A supplemented with 250 mM imidazole. The purified proteins were extensively dialyzed against storage buffer (20 mM HEPES pH 7.4, 50 mM NaCl, 2 mM DTT, 1 mM EDTA, 1 mM EGTA, 0.02% NP-40, 10% v/v glycerol) and stored at −70° C.
Compounds were investigated for their CDK2/cyclin E, CDK2/cyclin A, CDK1/cyclin B, and CDK4/cyclin D1 inhibitory activity. His6-tagged recombinant human cyclin-dependent kinases CDK1/cyclin B1, CDK2/cyclin E, CDK2/cyclin A, and CDK4 were expressed in sf9 insect cells using a baculovirus expression system. Recombinant cyclin D1 was expressed in E. coli. Proteins were purified by metal chelate affinity chromatography to greater than 90% homogeneity. Kinase assays were performed in 96-well plates using recombinant CDK/cyclins. Assays were performed in assay buffer (25 mM β-glycerophosphate, 20 mM MOPS, 5 mM EGTA, 1 mM DTT, 1 mM […], pH 7.4), into which were added 2-4 μg of active enzyme with appropriate substrates (purified histone H1 for CDK1 and CDK2, recombinant GST-retinoblastoma protein (residues 773-928) for CDK4). The reaction was initiated by addition of Mg/ATP mix (15 mM MgCl2+100 μM ATP with 30-50 kBq per well of [γ-^32P]-ATP) and mixtures incubated for 10-45 min, as required, at 30° C. Reactions were stopped on ice, followed by filtration through p81 or GF/C filterplates (for CDK4) (Whatman Polyfiltronics, Kent, UK). After washing 3 times with 75 mM aq orthophosphoric acid, plates were dried, scintillant added and incorporated radioactivity measured in a scintillation counter (TopCount, Packard Instruments, Pangbourne, Berks, UK). Compounds for kinase assays were made up as 10 mM stocks in DMSO and diluted into 10% DMSO in assay buffer. Data was analysed using curve-fitting software (GraphPad Prism version 3.00 for Windows, GraphPad Software, San Diego Calif. USA) to determine IC50 values (concentration of test compound which inhibits kinase activity by 50%).

[6] = tested on: ROCK-II; test: Protein kinase panel selectivity screen, ROCK-II; type: biochemical; details: 1 μM compound; [ATP] 20 μM
Experimental: as §1, §2

[7] = target: T3, PDK1 (Homo sapiens, UniProt O15530); test: Protein kinase panel selectivity screen, PDK1; type: biochemical; details: 1 μM compound; [ATP] 20 μM
T3 construct: Dundee University (panel)
T3 sequence (O15530 whole entry): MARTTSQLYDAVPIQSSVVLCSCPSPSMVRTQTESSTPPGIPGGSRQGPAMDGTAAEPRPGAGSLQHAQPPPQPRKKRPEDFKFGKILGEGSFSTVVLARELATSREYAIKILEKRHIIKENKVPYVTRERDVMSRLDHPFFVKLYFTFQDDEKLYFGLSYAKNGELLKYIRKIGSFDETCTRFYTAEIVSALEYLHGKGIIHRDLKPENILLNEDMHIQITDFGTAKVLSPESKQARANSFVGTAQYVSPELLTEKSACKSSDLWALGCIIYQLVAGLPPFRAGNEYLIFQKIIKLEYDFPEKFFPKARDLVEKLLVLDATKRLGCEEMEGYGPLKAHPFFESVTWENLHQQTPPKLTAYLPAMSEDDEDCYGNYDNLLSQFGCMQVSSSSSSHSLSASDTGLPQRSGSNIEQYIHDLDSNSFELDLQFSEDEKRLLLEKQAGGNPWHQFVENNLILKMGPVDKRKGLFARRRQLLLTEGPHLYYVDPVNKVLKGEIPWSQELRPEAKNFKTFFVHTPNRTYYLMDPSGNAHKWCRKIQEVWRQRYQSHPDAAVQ
Experimental: as §1, §2

[8] = tested on: CK2; test: Protein kinase panel selectivity screen, CK2; type: biochemical; details: 1 μM compound; [ATP] 5 μM
Experimental: as §1, §2

[9] = target: T4, MKK1 (Homo sapiens, UniProt Q02750); test: Protein kinase panel selectivity screen, MKK1; type: biochemical; details: 1 μM compound; [ATP] 5 μM
T4 construct: Dundee University (panel)
T4 sequence (Q02750 whole entry, species assumed): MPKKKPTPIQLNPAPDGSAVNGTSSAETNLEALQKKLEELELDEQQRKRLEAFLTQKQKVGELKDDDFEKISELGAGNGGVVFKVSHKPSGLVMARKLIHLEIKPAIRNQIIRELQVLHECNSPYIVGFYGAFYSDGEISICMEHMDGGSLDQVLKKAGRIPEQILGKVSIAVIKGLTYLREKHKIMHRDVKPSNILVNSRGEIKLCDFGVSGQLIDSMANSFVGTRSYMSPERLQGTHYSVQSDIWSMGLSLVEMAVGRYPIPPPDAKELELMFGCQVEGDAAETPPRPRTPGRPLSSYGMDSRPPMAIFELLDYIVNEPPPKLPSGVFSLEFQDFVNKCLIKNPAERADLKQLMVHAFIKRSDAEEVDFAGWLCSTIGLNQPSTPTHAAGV
Experimental: as §1, §2

[10] = target: T5, PKCa (Homo sapiens, UniProt P17252); test: Protein kinase panel selectivity screen, PKCa; type: biochemical; details: 1 μM compound; [ATP] 20 μM
T5 construct: Dundee University (panel)
Experimental: as §1, §2

[11] = target: T6, CDK9/cyclin T1 (Homo sapiens, UniProt P50750); test: CDK9/cyclin T1 inhibition constant; type: biochemical
T6 construct: His6 (N); made in house; host or cells: Sf9 insect cells (baculovirus)
T6 sequence (P50750 whole entry, species assumed): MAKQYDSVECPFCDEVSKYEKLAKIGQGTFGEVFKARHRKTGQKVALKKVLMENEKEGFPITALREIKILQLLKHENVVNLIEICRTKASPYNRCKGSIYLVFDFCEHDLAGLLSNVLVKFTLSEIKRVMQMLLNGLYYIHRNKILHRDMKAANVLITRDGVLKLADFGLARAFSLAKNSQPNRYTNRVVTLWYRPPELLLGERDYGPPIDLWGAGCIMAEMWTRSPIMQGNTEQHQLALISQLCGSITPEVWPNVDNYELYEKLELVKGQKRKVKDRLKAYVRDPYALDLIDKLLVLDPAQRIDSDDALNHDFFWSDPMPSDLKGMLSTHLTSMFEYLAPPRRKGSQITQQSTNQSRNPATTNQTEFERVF
T6 sequence (O60563 whole entry partner, species assumed): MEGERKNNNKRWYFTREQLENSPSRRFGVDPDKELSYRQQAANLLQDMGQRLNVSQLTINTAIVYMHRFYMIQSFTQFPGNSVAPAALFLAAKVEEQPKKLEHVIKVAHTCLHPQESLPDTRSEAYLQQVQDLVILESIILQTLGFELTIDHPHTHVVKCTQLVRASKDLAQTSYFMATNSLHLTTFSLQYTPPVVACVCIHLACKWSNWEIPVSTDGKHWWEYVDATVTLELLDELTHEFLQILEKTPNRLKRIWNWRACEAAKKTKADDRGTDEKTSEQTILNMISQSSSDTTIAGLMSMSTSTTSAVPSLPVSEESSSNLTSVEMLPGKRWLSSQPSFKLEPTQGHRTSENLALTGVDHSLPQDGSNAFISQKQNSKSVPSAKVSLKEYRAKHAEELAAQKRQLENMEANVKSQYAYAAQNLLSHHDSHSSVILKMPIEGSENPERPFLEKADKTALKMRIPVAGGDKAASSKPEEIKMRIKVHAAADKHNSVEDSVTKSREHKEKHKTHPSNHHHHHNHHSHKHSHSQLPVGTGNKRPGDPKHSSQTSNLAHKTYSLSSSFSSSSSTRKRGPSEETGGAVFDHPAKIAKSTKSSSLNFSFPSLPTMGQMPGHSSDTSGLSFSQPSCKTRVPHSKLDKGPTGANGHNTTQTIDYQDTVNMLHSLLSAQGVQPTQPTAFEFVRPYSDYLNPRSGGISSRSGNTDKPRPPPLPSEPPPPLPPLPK
Experimental: as §3
Intrinsic inhibition constants (Ki) for example compound XIV against a number of Ser/Thr kinases were determined and are summarized in Table 3.

T1 sequence (Q15418 whole entry, species assumed): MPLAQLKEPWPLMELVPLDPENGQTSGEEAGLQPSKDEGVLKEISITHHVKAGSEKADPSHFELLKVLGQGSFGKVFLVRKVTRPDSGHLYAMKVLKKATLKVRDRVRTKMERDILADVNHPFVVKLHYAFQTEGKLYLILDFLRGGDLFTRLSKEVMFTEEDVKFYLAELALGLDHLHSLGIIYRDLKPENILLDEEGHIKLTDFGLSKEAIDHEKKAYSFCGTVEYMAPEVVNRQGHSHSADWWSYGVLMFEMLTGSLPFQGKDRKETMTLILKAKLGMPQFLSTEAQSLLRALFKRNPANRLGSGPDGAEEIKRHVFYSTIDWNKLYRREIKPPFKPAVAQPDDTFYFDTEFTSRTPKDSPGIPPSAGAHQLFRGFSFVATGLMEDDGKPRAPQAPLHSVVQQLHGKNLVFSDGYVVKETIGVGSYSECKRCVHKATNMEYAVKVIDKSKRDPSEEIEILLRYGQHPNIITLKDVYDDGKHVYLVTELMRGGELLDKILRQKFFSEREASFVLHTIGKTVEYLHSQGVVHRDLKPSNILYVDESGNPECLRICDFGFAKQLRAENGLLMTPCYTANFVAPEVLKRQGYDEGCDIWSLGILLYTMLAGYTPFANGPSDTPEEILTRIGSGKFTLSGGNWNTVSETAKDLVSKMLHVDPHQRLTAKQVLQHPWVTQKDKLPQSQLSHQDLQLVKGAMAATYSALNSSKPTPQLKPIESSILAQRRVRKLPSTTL

Clc1ccc(Nc2nccc(-c3nccs3)n2)cn1 [Compound XIV, (6-Chloro-pyridin-3-yl)-(4-thiazol-2-yl-pyrimidin-2-yl)-amine]
activity at 1 µM [1]: 60 ± 1% | EC50 ([2]; Rattus norvegicus, L6 myocytes, from dose-response curves, read-out: EC50 activation of glycogen synthase): 4 ± 1.5 µM | Activity of glycogen synthase (fractional velocity) ([2]; rat myocyte cells, ratio of activity at 0.1 and 10 mM glucose-6-phosphate): increased the activity of glycogen synthase | % Activity p70S6K [3]: 91 ± 2% | % Activity Lck [4]: 66 ± 5% | Fold selectivity for GSK3 over CDK1/cyclin B ([5]; from Ki): >6,250 fold | Ki ([5]; read-out: Ki CDK1/cyclin B): > 100 µM | IC50 ([5]; read-out: Kinase inhibition IC50 CDK1/B1): > 100 µM | % Activity ROCK-II [6]: 87 ± 6% | activity at 1 µM [7]: 85 ± 5% | % Activity CK2 [8]: 84 ± 1% | activity at 1 µM [9]: 83 ± 4% | activity at 1 µM [10]: 76% | Ki [11]: 0.5 µM | Fold selectivity for GSK3 over CDK9/cyclin T1 ([11]; from Ki): 31 fold
